ChEMBL document CHEMBL1138629, “Synthesis of 61-bis(1-adamantylcarbamoyl)-1,2-methano[60]fullerene and its antagonistic effect on haloperidol-induced catalepsy in mice” (Bioorg Med Chem Lett, 2004)

Target: T1, Fatty-acid amide hydrolase 1 (Mus musculus, UniProt O08914)
T1 sequence (O08914 whole entry): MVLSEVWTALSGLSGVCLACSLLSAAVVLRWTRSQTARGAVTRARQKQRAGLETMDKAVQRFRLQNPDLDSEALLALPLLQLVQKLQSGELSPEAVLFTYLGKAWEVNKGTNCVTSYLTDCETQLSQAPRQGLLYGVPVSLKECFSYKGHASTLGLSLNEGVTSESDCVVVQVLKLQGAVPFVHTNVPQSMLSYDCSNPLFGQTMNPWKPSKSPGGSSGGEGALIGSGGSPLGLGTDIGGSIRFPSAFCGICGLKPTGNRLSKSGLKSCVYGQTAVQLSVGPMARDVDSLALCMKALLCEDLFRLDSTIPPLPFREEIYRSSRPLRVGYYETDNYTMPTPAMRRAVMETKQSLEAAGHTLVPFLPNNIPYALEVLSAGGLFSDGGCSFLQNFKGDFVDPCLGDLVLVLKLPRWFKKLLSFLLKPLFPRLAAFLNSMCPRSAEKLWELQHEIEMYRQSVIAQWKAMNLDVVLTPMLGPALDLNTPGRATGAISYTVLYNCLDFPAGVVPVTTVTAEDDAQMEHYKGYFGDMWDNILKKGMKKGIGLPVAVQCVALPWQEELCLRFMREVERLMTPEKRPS
Test: Inhibitory concentration against mouse fatty acid amide hydrolase
Assay type: functional

Work on `NC(=O)CCC/C=C\C/C=C\C/C=C\C/C=C\CCCCCC12CC3CC(CC(C3)C1)C2` yielded an IC50 of 37.4 µM.
